Source: patent US20230271956A1, “AMIDE DERIVATIVES” (Merck Patent GmbH, priority 2020, published 2023)

How the values were obtained:
ACSS2 = molecular target: T1, ACSS2 (Homo sapiens, UniProt Q9NR19); test: Cellular assay of 14C acetate incorporation into fatty acids (IC50 ACSS2 cellular lipids); format: cell-based; conditions: HCT-15 cells
T1 construct: endogenous fatty acid synthesis activity in the human HCT-15 cancer cell line; endogenous in cells; host or cells: HCT-15
Summary of the method: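 Human HCT-15 cells, 24 h on collagen, pre-incubated with compound 2 h at 37 °C in RPMI 1640/10 mM HEPES (≤0.1% DMSO), then 2 h with 14C-acetate plus AlamarBlue as viability check. Lysis at 70 °C, acidified fatty acids captured on scintillant plates; 14C incorporation counted as CPM.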

human rec ACSS2 = molecular target: T2, human rec ACSS2 (Homo sapiens, UniProt Q9NR19); test: Biochemical activity ACSS2 assay (AMP-Glo); conditions: human recombinant ACSS2, AMP-Glo, 180 min at 37° C.
T2 construct: myc (C); purchased Origene
Summary of the method: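 C-terminal myc-tagged human recombinant ACSS2 (1 nM) reacted with 100 µM ATP, 100 µM CoA and 500 µM acetate (final) in pH 7.5 Hepes buffer for 180 min at 37° C, compound in 10 concentrations from 30 µM. Released AMP detected by AMP-Glo luminescence. IC50 normalised to inhibitor-free reaction and 5 µM reference inhibitor.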

T1 sequence (Q9NR19 whole entry): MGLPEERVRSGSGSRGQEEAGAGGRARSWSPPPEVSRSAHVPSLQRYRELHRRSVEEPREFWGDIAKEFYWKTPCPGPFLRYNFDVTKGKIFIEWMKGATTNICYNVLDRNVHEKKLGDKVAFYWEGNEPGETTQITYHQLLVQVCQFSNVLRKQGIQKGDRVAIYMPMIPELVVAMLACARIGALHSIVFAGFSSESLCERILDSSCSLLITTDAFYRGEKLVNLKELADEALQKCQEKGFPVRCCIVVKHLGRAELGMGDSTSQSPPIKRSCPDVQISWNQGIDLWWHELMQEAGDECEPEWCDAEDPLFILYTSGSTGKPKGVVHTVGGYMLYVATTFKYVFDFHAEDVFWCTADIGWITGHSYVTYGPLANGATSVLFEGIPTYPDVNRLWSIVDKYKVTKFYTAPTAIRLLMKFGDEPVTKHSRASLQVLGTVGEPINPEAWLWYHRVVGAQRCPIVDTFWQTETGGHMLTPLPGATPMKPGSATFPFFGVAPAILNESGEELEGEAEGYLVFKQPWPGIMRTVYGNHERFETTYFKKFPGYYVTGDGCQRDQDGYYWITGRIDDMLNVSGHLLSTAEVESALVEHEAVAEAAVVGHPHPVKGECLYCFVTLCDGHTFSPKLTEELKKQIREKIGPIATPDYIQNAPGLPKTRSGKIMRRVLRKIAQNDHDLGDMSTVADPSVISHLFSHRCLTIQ
T2 sequence (Q9NR19 whole entry): as above

CCc1c(C(O)(c2ccccc2)c2ccccc2)nc2cc(Cl)c(C(=O)Nc3ncn(CC)n3)cn12 [Compound 14, 7-Chloro-3-ethyl-2-(hydroxy-diphenylmethyl)-imidazo[1,2-a]pyridine-6-carboxylic acid (1-ethyl-1H-[1,2,4]triazol-3-yl)-amide]
IC50 (ACSS2): 1 to 10 nM | IC50 (human rec ACSS2): 1 to 10 nM

CCn1cnc(NC(=O)c2cc3c(nc2OC)nc(C(O)(c2ccccc2F)c2ccc(OC(F)F)cc2F)n3CC)n1 (racemic) [Compound 94, 2-{[4-(difluoromethoxy)-2-fluorophenyl](2-fluorophenyl)hydroxymethyl}-1-ethyl-N-(1-ethyl-1H-1,2,4-triazol-3-yl)-5-methoxy-1H-imidazo[4,5-b]pyridine-6-carboxamide]
IC50 (ACSS2): 1 to 10 nM | IC50 (human rec ACSS2): 1 to 10 nM

CCc1c(C(O)(c2ccccc2)c2ccccc2)nc2cc(F)c(C(=O)Nc3ncn(CC)n3)cn12 [Compound 20, 3-Ethyl-7-fluoro-2-(hydroxy-diphenylmethyl)-imidazo[1,2-a]pyridine-6-carboxylic acid (1-ethyl-1H-[1,2,4]triazol-3-yl)-amide]
IC50 (ACSS2): 1 to 10 nM | IC50 (human rec ACSS2): 1 to 10 nM

CCc1c(C(O)(c2ccccc2)c2ccccn2)nc2cc(OC)c(C(=O)Nc3ncn(CC)n3)cn12 (racemic) [Compound 16, 3-Ethyl-2-(hydroxy-phenyl-pyridin-2-yl-methyl)-7-methoxy-imidazo[1,2-a]pyridine-6-carboxylic acid (1-ethyl-1H-[1,2,4]triazol-3-yl)-amide]
IC50 (ACSS2): 10 to 100 nM | IC50 (human rec ACSS2): 10 to 100 nM

CCn1cnc(NC(=O)c2cc3c(nc2OC)nc(C(O)(c2ccccc2)c2ccccn2)n3CC)n1 (single isomer, unassigned) [Compound 53, 1-ethyl-N-(1-ethyl-1H-1,2,4-triazol-3-yl)-2-[hydroxy(phenyl)(pyridin-2-yl)methyl]-5-methoxy-1H-imidazo[4,5-b]pyridine-6-carboxamide]
IC50 (ACSS2): 0.01 to 1 nM | IC50 (human rec ACSS2): 1 to 10 nM

CCc1c(C(O)(c2ccccc2)c2ccccc2)nc2ccc(C(=O)Nc3ncn(CC)n3)cn12 [Compound 25, 3-Ethyl-2-(hydroxy-diphenyl-methyl)-imidazo[1,2-a]pyridine-6-carboxylic acid (1-ethyl-1H-[1,2,4]triazol-3-yl)-amide]
IC50 (ACSS2): 1 to 10 nM | IC50 (human rec ACSS2): 1 to 10 nM

CCc1c(C(O)(c2ccccc2F)c2ccccc2F)nc2cc(Cl)c(C(=O)Nc3ncn(CC)n3)cn12 [Compound 31, 2-[Bis-(2-fluoro-phenyl)-hydroxy-methyl]-7-chloro-3-ethyl-imidazo[1,2-a]pyridine-6-carboxylic acid (1-ethyl-1H-[1,2,4]triazol-3-yl)-amide]
IC50 (ACSS2): 1 to 10 nM | IC50 (human rec ACSS2): 1 to 10 nM

CCc1c(C(O)(c2ccccc2)c2ccccc2)nn2ccc(C(=O)Nc3ncn(CC)n3)cc12 [Compound 9, 3-Ethyl-2-(hydroxy-diphenyl-methyl)-pyrazolo[1,5-a]pyridine-5-carboxylic acid (1-ethyl-1H-[1,2,4]triazol-3-yl)-amide]
IC50 (ACSS2): 0.01 to 1 nM | IC50 (human rec ACSS2): 1 to 10 nM
